A word on the inhibition: it is how much of the control response was suppressed. The term IC50 denotes the concentration needed to halve the response being measured. Read a high IC50 as weaker potency.

Holding throughout (assay type): biochemical
The target of test [1] is T1, GST-CLK2cd (CLK2 catalytic domain) (Homo sapiens, UniProt P49760).
T1 construct: cDNA encoding the CLK2 catalytic domain (CLK2cd, amino acids 140–496); made in house; host or cells: Escherichia coli BL21(DE3)-R3-lambda-PPase
Description: High-throughput screen, Kinase-Glo in vitro kinase assay. The following applies: compound at 10 μM; read-out: percentage of inhibition on CLK2 (primary screen). As to the method: A small molecule inhibitor library consisting of 1600 compounds was obtained from LIFE Chemicals (Kiev, Ukraine). These compounds are part of the CUTE kinase collection that was predicted by in silico profiling against a panel of targets and includes potent kinase inhibitor compounds.[16] Compounds were dissolved as 10 mM stocks in DMSO and stored at room temperature, in the presence of 5% humidity and 5% oxygen in the dark in a Roylan Storage Pod system. Compounds were dispensed into white 384-well plates using the Labcyte Echo520 instrument at a final concentration of 10 μM. Next, 5 μL of 144.92 nM purified GST-CLK2cd in kinase assay buffer A was added to the compounds, incubated for 10 min at room temperature prior to addition of 5 μL of a 2 μM ATP/10 μM S6K peptide mixture, and incubated again for 60 min at room temperature. Subsequently, 10 μL of Kinase-Glo was added to the wells, and the plates were analyzed after 10 min on the Envision II multilabel plate reader (PerkinElmer). […] The percentage of inhibition is equal to 100 – [(total ATP before assay – remaining ATP in assay with compound)/(total ATP before assay – remaining ATP in assay with DMSO) × 100].
(In general: Kinase-Glo measures the ATP left after a reaction by luminescence.)

The target in test [2] is CLK2 (Homo sapiens, UniProt P49760). Description: Kinase inhibition assay, IC50. More on the design: cDNA encoding the CLK2 catalytic domain (CLK2cd, amino acids 140–496); made in house; host or cells: Escherichia coli BL21(DE3)-R3-lambda-PPase. The following applies: relative to 3A5.
Test [3] deals with firefly luciferase. Nature of the test: Luciferase inhibition assay (Kinase-Glo, no kinase). The following applies: compound at 10 μM. The procedure:
For analysis of luciferase inhibition, 10 μL of luciferase reagent (Kinase-Glo, Promega) was added to 10 μL of a mixture consisting of 1 μM ATP and 5 μM S6K and 10 μM compound (potential kinase inhibitor) in buffer A in the absence of kinase and incubated for 10 min at room temperature in a white well plate before the luminescence was read. The percentage of inhibition is equal to (luminescence in the assay without compound – luminescence in the assay with compound)/(luminescence in the assay without compound) × 100.

Test [4] concerns the target T2, CLK3 (Homo sapiens, UniProt P49761).
T2 construct: The catalytic domains of CLK1, CLK2, CLK3, CLK2K193A, and CLK2K193A/D290A were tagged with GST; GST (N); made in house
Description: Kinase inhibition assay, IC50.

T1 sequence (P49760 140-496): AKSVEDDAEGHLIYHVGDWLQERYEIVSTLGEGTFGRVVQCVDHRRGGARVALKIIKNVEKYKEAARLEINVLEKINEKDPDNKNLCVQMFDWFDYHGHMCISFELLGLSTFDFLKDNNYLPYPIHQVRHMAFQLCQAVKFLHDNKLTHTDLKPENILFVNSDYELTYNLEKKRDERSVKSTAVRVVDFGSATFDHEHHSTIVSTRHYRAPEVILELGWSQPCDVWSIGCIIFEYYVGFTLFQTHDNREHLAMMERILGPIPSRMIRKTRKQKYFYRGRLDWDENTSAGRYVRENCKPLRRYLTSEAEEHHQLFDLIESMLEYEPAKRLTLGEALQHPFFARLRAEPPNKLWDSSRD
Chain of CLK2 (P49760 140-496): as above
T2 sequence (P49761 156-472 limits assumed): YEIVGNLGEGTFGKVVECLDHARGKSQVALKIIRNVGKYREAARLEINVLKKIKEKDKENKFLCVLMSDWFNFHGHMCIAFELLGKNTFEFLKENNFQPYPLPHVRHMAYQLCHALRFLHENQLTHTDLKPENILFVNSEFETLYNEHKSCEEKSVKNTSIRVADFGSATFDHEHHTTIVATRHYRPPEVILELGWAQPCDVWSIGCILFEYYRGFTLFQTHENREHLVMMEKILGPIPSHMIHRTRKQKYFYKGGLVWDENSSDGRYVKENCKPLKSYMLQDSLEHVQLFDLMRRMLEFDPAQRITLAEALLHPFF

As for `CSc1nc2ccc3nc(NC(=O)c4ccc(S(=O)(=O)N5CCOCC5)cc4)sc3c2s1` [5F4], the inhibition at 10 µM in test [1] was found to be 55%. Besides, the “decrease of inhibition against CLK2 compared to 3A5” value in test [2] was 2–3 fold. Besides, the “% inhibition of luciferase” value in test [3] turned out to be 23.6 ± 1.5%.
Regarding `Fc1ccc(-c2csc3ncnc(NCc4ccccc4)c23)cc1` [5E11], the inhibition at 10 µM in test [1] was determined as 58%. For the same compound, the “% inhibition of luciferase” value in test [3] was 26.4 ± 2.4%.
For `CC(=O)Nc1nc2cc3c(cc2s1)OCO3` [8A6] the same measures were 53% and 18.8 ± 1.6%.
For `COc1ccc(Cc2cnc(NC(=O)c3cc(C)oc3C)s2)cc1` [13D3] the same measures were 51% and 0 ± 2.4%.
For `O=C(O)c1ccc(C(=O)Nc2ccccc2-c2nc3ccccc3[nH]2)cc1` [9C6] the same measures were 58% and 5.6 ± 4.0%.
In the case of `CC(=O)Nc1ccc(-c2nc3c(Cl)cccc3[nH]2)cc1` [2A4], in test [1], the inhibition at 10 µM is 51%. Besides, the “% inhibition of luciferase” value in test [3] is given as 17.5 ± 4.5%.
For `COc1ccccc1C(=O)Nc1nc2ncccc2cc1-c1ccccc1` [17F6] the same measures were 53% and 21.9 ± 0.2%.
`O=C1N=C(NCc2cccs2)S/C1=C\c1ccc2ncccc2c1` [NR9, (5Z)-5-(quinolin-6-ylmethylidene)-2-[(thiophen-2-ylmethyl)amino]-1,3-thiazol-4(5H)-one] returned an IC50 in test [4] greater than 3 µM.
`O=C(Nc1nc2c(s1)CCCC2)C1CC1` [1C11]: in test [1], the inhibition at 10 µM worked out at 50%. The “% inhibition of luciferase” value in test [3] was 8.1 ± 1.8%.
Turning to `Cc1nc2c(ccc3nc(NC(=O)c4cccs4)sc32)s1` [4G9], in test [1], the inhibition at 10 µM was 50%. The “% inhibition of luciferase” value in test [3] is recorded as 47.8 ± 2.1%.
For `CCN1/C(=C/C(C)=O)Sc2ccc(OC)cc21` [TG003, reference compound] the same measures were 63% and 13.4 ± 1.8%.
For `O=C(Nc1cccc(-c2nc3ccccc3[nH]2)c1)c1ccc2nsnc2c1` [18H3] the same measures were 56% and 21.1 ± 2.2%.
For `O=C(NCCO)c1ccc(Nc2nc(-c3ccccc3)c3cc(Cl)ccc3n2)cc1` [4B9] the same measures were 56% and 20.4 ± 1.6%.
Take `COCCNC(=O)c1cccc(Nc2nc(-c3ccccc3)c3cc(Cl)ccc3n2)c1` [8B5]: the inhibition at 10 µM in test [1] was found to be 52%. Moreover, the “% inhibition of luciferase” value in test [3] is listed as 0 ± 6.2%.
For `COc1cc(C(=O)Nc2nc3ccc(S(=O)(=O)N4CCCCC4)cc3s2)cc(OC)c1OC` [7C4] the same measures were 53% and 19.6 ± 3.6%.
`CC1(C)Cc2cccc(OCC(=O)Nc3cccc(-c4cc[nH]n4)c3)c2O1` [18B6]: the inhibition at 10 µM in test [1] is 58%. In addition, the “% inhibition of luciferase” value in test [3] amounted to 17.5 ± 2.2%.
For the compound `O=C(Nc1cccc(-c2nc3ccccc3[nH]2)c1)c1ccc2ncsc2c1` [3B5], the inhibition at 10 µM in test [1] was determined as 65%. For the same compound, in test [3], the “% inhibition of luciferase” value is reported as 26 ± 1.1%.

The values are drawn from paper PMC4730229, “Benzobisthiazoles Represent a Novel Scaffold for Kinase Inhibitors of CLK Family Members” (Biochemistry, 2015).
